Results as given in ChEMBL document CHEMBL1127534, “2-Alkynyl derivatives of adenosine-5'-N-ethyluronamide: selective A2 adenosine receptor agonists with potent inhibitory activity on platelet aggregation” (J Med Chem, 1994).

What was measured:
[1] = molecular target: T1, Adenosine receptor A1 (Rattus norvegicus, UniProt P25099); experiment: biochemical
T1 sequence (P25099 whole entry): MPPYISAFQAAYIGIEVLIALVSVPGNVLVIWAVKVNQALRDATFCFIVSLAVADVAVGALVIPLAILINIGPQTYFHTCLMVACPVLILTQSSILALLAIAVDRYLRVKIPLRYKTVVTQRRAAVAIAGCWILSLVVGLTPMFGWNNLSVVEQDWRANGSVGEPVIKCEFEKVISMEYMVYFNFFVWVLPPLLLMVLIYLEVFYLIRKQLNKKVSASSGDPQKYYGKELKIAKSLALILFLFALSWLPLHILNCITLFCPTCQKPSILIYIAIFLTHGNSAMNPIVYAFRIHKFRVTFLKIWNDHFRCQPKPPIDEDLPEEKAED
Description: Affinity for adenosine A1 receptor assayed in a competition assay in rat brain using [3H]-CHA as radioligand

[2] = molecular target: T2, Adenosine A2 receptor (Rattus norvegicus, UniProt P29276+P30543)
Description: Affinity for the adenosine A2 receptor was evaluated in a competition assay in rat striatum using [3H]-CGS- 21680 as radioligand

[3] = molecular target: T1, Adenosine receptor A1; experiment: Negative chronotropic activity via A1 Adenosine receptor was tested in spontaneously beating rat atria; format: functional
[4] = Hydrophobicity index (k') (RP-HPLC); format: ADME
[5] = molecular target: T2, Adenosine A2 receptor; remark: listed apart in the source
Description: Negative chronotropic activity via A2 Adenosine receptor was tested monitoring vasodilation in rat aorta

[6] = molecular target: T2, Adenosine A2 receptor; experiment: Vasorelaxant activity for A2 Adenosine receptor as vasodilation in rat aorta
[7] = species on record: Oryctolagus cuniculus; experiment: Antiaggregatory effect was evaluated on rabbit platelet aggregation induced by ADP.; format: functional
[8] = molecular target: T1, Adenosine receptor A1; experiment: Negative chronotropic activity for A1 Adenosine receptor in spontaneously beating rat atria; format: functional
[9] = molecular target: T1, Adenosine receptor A1; experiment: Affinity for A1 Adenosine receptor in rat brain using [3H]CHA; format: tissue-based
[10] = molecular target: T2, Adenosine A2 receptor; experiment: Affinity for A2 Adenosine receptor in rat striatum using [3H]-CGS- 21680; format: tissue-based

SMILES: CCNC(=O)[C@H]1O[C@@H](n2cnc3c(N)nc(C#CC(O)c4ccccc4)nc32)[C@H](O)[C@@H]1O (stereo partly specified)
- Ki [1]: 2.5 nM
- Ki [2]: 0.9 nM
- EC50 [3]: 110 nM
- k' [4]: 0.82
- EC50 [5]: 123 nM

SMILES: CCNC(=O)[C@H]1O[C@@H](n2cnc3c(N)nc(C#CC(C)(O)c4ccccc4)nc32)[C@H](O)[C@@H]1O (stereo partly specified)
- Ki [1]: 32.7 nM
- Ki [2]: 1.7 nM
- EC50 [3]: 2430 nM
- k' [4]: 1.32
- EC50 [5]: 456 nM

SMILES: CCNC(=O)[C@H]1O[C@@H](n2cnc3c(N)nc(C#CCCCC#N)nc32)[C@H](O)[C@@H]1O
- Ki [1]: 184 nM
- Ki [2]: 4.7 nM
- EC50 [3]: 2370 nM
- k' [4]: 0.32
- EC50 [5]: 111 nM

SMILES: CCNC(=O)[C@H]1O[C@@H](n2cnc3c(N)nc(C#CCN)nc32)[C@H](O)[C@@H]1O
- Ki [1]: 48.6 nM
- Ki [2]: 38.3 nM
- EC50 [3]: 730 nM
- k' [4]: 0.15
- EC50 [5]: 564 nM

SMILES: CCNC(=O)[C@H]1O[C@@H](n2cnc3c(N)nc(C#CC4(O)CCCC4)nc32)[C@H](O)[C@@H]1O
- Ki [1]: 4 nM
- Ki [2]: 0.6 nM
- EC50 [6]: 159 nM
- Ratio [7]: 5.3
- k' [4]: 0.77
- EC50 [8]: 475 nM

SMILES: CCNC(=O)[C@H]1O[C@@H](n2cnc3c(N)nc(C#CC(C)(O)CC(C)C)nc32)[C@H](O)[C@@H]1O (stereo partly specified)
- Ki [1]: 3 nM
- Ki [2]: 0.5 nM
- EC50 [3]: > 10000 nM
- k' [4]: 1.84
- EC50 [5]: 338 nM

SMILES: CCNC(=O)[C@H]1O[C@@H](n2cnc3c(N)nc(C#CCCCCO)nc32)[C@H](O)[C@@H]1O
- Ki [1]: 42.1 nM
- Ki [2]: 6.8 nM
- EC50 [3]: > 10000 nM
- k' [4]: 0.35
- EC50 [5]: 391 nM

SMILES: CCNC(=O)[C@H]1O[C@@H](n2cnc3c(N)nc(C#CCC(C)O)nc32)[C@H](O)[C@@H]1O (stereo partly specified)
- Ki [1]: 69.6 nM
- Ki [2]: 56.4 nM
- EC50 [3]: 6050 nM
- k' [4]: 0.29
- EC50 [5]: 1650 nM

SMILES: CCNC(=O)[C@H]1O[C@@H](n2cnc3c(N)nc(C#CC(O)CC)nc32)[C@H](O)[C@@H]1O (stereo partly specified)
- Ki [9]: 20.4 nM
- EC50 [3]: 153 nM
- k' [4]: 0.42
- Ki [10]: 12.4 nM
- EC50 [5]: 69.3 nM

SMILES: CCNC(=O)[C@H]1O[C@@H](n2cnc3c(N)nc(C#CC(C)O)nc32)[C@H](O)[C@@H]1O (stereo partly specified)
- Ki [1]: 11.1 nM
- Ki [2]: 7.6 nM
- EC50 [3]: 657 nM
- k' [4]: 0.23
- EC50 [5]: 828 nM

SMILES: CCNC(=O)[C@H]1O[C@@H](n2cnc3c(N)nc(C#CC4CCCCC4)nc32)[C@H](O)[C@@H]1O
- Ki [1]: 236 nM
- Ki [2]: 9.2 nM
- EC50 [3]: > 10000 nM
- k' [4]: 4.54
- EC50 [5]: 329 nM

SMILES: CCNC(=O)[C@H]1O[C@@H](n2cnc3c(N)nc(C#CCCCCl)nc32)[C@H](O)[C@@H]1O
- Ki [1]: 37.9 nM
- Ki [2]: 1 nM
- EC50 [3]: 2520 nM
- k' [4]: 1.35
- EC50 [5]: 715 nM
